A word on the IC50: it is the point on the concentration scale where inhibition reaches its midpoint. As usually defined, the EC50 is the concentration giving half of the maximal effect.

From US8981106B2, “Pyrimidinecarboxamides as CXCR2 modulators” (Syntrix Biosystems, Inc., priority 2009, dated 2015) come the findings set out here.

The structures appear in SMILES notation. Several values for one entry are separate records, joined by “and”; a condition that tells them apart may be missing. Equal values may be shown once. Read-outs that look alike come from different tables or passages of the source.

For data set [1], the target named is T1, CXCR2 (Homo sapiens (Human), UniProt P25025). Kind of data set: Inhibition of GROα-mediated intracellular calcium release in human neutrophils (FLIPR-3 Ca2+ mobilization). The format is cell-based. Here is the method: (§1) In Tables 1-5, the IC50 or EC50 values were determined using the following assay. This assay measures intracellular calcium release via fluorescence as an indication of CXCR2 receptor activation by the physiologic agonist GROα. The assay is a Ca^2+ mobilization assay that measures changes in intracellular Ca^2+ with a FlexStation II scanning fluorometer using a FLIPR-3 Calcium Assay Kit (Molecular Devices, Sunnyvale, Calif.). The procedure is as follows:
1. Human neutrophils were suspended in HBSS^− (without Ca^2+ and Mg^2+) containing 10 mM HEPES and FLIPR Calcium 3 dye (3.1×10^7 cells in total volume 1.7 mL).
2. […] As controls, 2 μL of DMSO (1% final concentration) were added to other 2 tubes.
3. Cells were incubated for 30 min at 37° C.
4. After dye loading, tubes were centrifuged at 6,000 rpm for 1 min, supernatant was removed and cell pellet was re-suspended in 200 μL of HBSS^+ (with Ca^2+ and Mg^2+) containing 10 mM HEPES.
5. The compound or DMSO (control) was added again at the same concentrations that were used during cell loading.
6. The cell suspension was aliquoted into a 96-well Reading Plate (Corning) in a volume of 90 μL (10^5 cells/well). The Compound Plate contained physiologic agonist (GROα in HBSS^−) or HBSS^− (control).
(§2) 9. The maximum change in fluorescence, expressed in arbitrary units over baseline (Max-Min) was used to determine the GROα response. […] Therapeutic Activity
Briefly, human neutrophils were suspended in HBSS^− (without Ca^2+ and Mg^2+) containing 10 mM HEPES and FLIPR Calcium 3 dye (3.1×10^7 cells in total volume 1.7 mL). […] As controls, 2 μL of DMSO (1% final concentration) were added to 2 other tubes. Cells were incubated for 30 min at 37° C. After dye loading, tubes were centrifuged at 6,000 rpm for 1 min, supernatant was removed and the cell pellet was re-suspended in 200 μL of HBSS^+ (with Ca^2+ and Mg^2+) containing 10 mM HEPES. The test compound or DMSO (control) was added again at the same concentrations that were used during cell loading. The cell suspension was aliquoted into a 96-well Reading Plate (Corning) in a volume of 90 μL (10^5 cells/well). The Compound Plate contained agonist (GROα in HBSS^−) or HBSS^− (control).
(§3) The maximum change in fluorescence, expressed in arbitrary units over baseline (Max-Min), was used to determine the GROα response.
Target sequence in this assay (P25025 whole entry): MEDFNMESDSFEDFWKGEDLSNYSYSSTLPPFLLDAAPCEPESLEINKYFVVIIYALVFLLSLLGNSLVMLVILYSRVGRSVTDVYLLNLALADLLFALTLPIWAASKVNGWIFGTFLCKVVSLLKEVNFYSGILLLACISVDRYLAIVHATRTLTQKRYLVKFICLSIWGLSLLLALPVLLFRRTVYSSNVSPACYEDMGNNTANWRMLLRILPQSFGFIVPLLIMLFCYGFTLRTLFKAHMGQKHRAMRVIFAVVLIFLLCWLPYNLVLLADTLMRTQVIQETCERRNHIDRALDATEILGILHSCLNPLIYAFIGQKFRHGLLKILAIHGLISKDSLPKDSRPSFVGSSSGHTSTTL

The target in data set [2] is T1, CXCR2. Kind of data set: Agonist activity: intracellular calcium release in human neutrophils in the absence of GROα. Conditions: for Magnitude of Agonist Response (% of GROα only Control): relative to the response to 25 nM GROα; for EC50: human neutrophils, agonist calcium release. Type of data set: cell-based. As for the experimental part:
as §1, §2, §3
Target sequence in this assay (P25025 whole entry): as above
Intracellular calcium release is a hallmark of CXCR2 activation by endogenous agonists, such as GROα and IL-8.
Background: Calcium flux is commonly read through the fluorescence of an indicator in the cells.

Data set [3] addresses T1, CXCR2. Kind of data set: 125I-IL-8 radioligand binding inhibition. Conditions: concentrations up to 10 μM. From the text: In vitro experiments, in addition to those measuring calcium release from human PMNs, provided evidence that the mechanism of action of Compounds 1 and 2 are most consistent with an allosteric (non-competitive) mode of action.
Another data set deals with neutrophil influx. Kind of data set: Murine air pouch model of neutrophil chemotaxis (p.o.). The format is in vivo, male CD-1 mice. Here is the method: Compounds 1 (SX-517) and 2 (SX-576) were also assayed in an in vivo air-pouch model of inflammation. SX-517 and SX-576 were able to attenuate neutrophil influx in the air-pouch model by about 50% at an oral dose of 0.2 and 0.05 mg/kg, respectively. […] More specifically, the procedure was performed by forming an air pouch on the backs of male CD-1 mice via the subcutaneous injection of air (2 mL). The next day, an additional subcutaneous injection of air (1.5 mL) was performed to reinflate the air pouch. The mice were given either vehicle control (Labrasol®) or test compound solubilized in Labrasol® via oral gavage. After 3 hours, either sterile phosphate buffered saline (PBS, 1 ml) or 2% carrageenan in sterile PBS (1 mL) was injected into the air pouch. After 4 hours, the mice were sedated with ketamine, and sacrificed by cervical dislocation. The exudate in the air pouch was collected by syringe, with an additional 2 mL wash with sterile PBS. The neutrophils were stained with trypan blue and counted on a hemocytometer under 20× magnification.
Target sequence in this assay (P25025 whole entry): as above

Data set [4] is described as follows: Crossover pharmacokinetic experiment in Beagle dogs. The format is in vivo. Conditions: without excipient. Here is the method: In this study, male Beagle dogs (n=5) were dosed intravenously on study day 1 with SX-576 in dimethylformamide/PEG400/saline (40:40:20) at a dose level of 5 mg/kg and a dose volume of 0.5 mL/kg. Blood samples were taken predose, and at time points 30, 60, 90, 120, 180, 360, 540 and 720 minutes. The blood was collected in tubes containing K2EDTA as an anticoagulant, and the tubes were centrifuged and the plasma fractions collected and frozen. After a one-week washout period, the same Beagle dogs were dosed orally with SX-576 in lipid based excipient Gelucire® 44/14 (Gattefosse) at a dose level of 5 mg/kg. Blood samples were then taken and plasma fractions collected as previously described. Prior to analysis, the plasma samples were thawed and diluted 1:3 into acetonitrile containing 1 μM of compound 153 as an internal standard. The resulting samples were centrifuged and the supernatant analyzed by LC-MS monitoring in multiple reaction monitoring mode. The samples were run concomitantly with a calibration curve of SX-576 in the same internal standard solution.
The lipid based excipient Gelucire® 44/14 is a self-emulsifying drug delivery system (SEDDS) that is able to solubilize both SX-517 and SX-576 into aqueous solutions via micellular formation. […] Therefore, lipid-based emulsifiers are important excipients for the oral delivery of SX-576.

Another data set is described as follows: Aqueous solubility. The format is physicochemical.
Data set [5] has as its target T1, CXCR2. Kind of data set: β-arrestin recruitment, β-galactosidase fragment complementation (DiscoveRx).
Target sequence in this assay (P25025 whole entry, species assumed): as the sequence (P25025 whole entry) above
The mark [6] stands for this setting: human neutrophils, 25 nM GROα, read-out: IC50.

In the case of `O=C(Nc1ccc(F)cc1)c1ccc(SCc2ccccc2B(O)O)nc1` [Compound 1, 6-(2-borono-2-yl-benzylsulfanyl)-N-(4-fluoro-phenyl)-nicotinamide], the IC50 at CXCR2 [1] (setting [6]) is 38 ± 3 nM; on CXCR2 [1] (in vitro, stated in the binding example, read-out: IC50 in vitro), about 60 nM. The “Magnitude of Agonist Response (% of GROα only Control)” value (from here on “Magnitude … (% of GROα only Control)”) at CXCR2 [2] is reported as “did not show agonist activity”. The “displacement of radiolabeled IL-8 binding to CXCR2 receptors” value at CXCR2 [3] is given as “unable to significantly displace”. For the same compound, in the data set with neutrophil influx (high doses, compared to control animals), the “total neutrophil counts in the blood” value is “not significantly changed”. Further, in the data set on neutrophil influx (oral dose 0.2 mg/kg), the “attenuation of neutrophil influx” value is recorded as “about 50%”. Also, in the data set with neutrophil influx (p.o., 0.005 and 0.2 (mg/kg)), the neutrophil influx entry is on record as “decrease of neutrophil influx”. Further, the “neutrophil influx at high oral dose” value in the data set on neutrophil influx (p.o., doses in excess of 10 mg/kg) is reported as “increase in neutrophil influx”. In data set [4], the “plasma level when dosed without excipient” value is listed as “undetected in plasma”. Besides, the aqueous solubility result in the data set “Aqueous solubility” was “poor aqueous solubility”. Further, at CXCR2 [5] (absence of IL8), the “activity on β-arrestin complexation with CXCR2 in the absence of IL8” value was “inverse agonists”. In addition, the “inhibition of β-arrestin recruitment following CXCR2 activation with IL8” value against CXCR2 [5] (with IL8) is “inhibited arrestin recruitment”. On to `O=C(Nc1ccc(F)cc1)c1ccc(SCc2ccccc2O)nc1` [Compound 13], for which, at CXCR2 [2], the EC50 worked out at 2400 nM and the “Magnitude … (% of GROα only Control)” value was 60%. Regarding `O=C(Nc1ccc(F)cc1)c1ccc(SCc2cc(OC(F)(F)F)ccc2O)nc1` [Compound 14, 6-(2-hydroxy-5-trifluoromethoxy-benzylsulfanyl)-N-(4-fluoro-phenyl)-nicotinamide], the IC50 at CXCR2 [1] (setting [6]) worked out at 28 ± 6 nM. On CXCR2 [2], the EC50 was 1800 nM and 1810 nM; the “Magnitude … (% of GROα only Control)” value came out at 15%.

On to `O=C(Nc1ccc(F)cc1)c1ccc(SCC(=O)c2cc(-c3ccc(Cl)cc3Cl)no2)nc1` [Compound 136], for which the IC50 at CXCR2 [1] (setting [6]) was over 5000 nM. Regarding `O=C(Nc1ccc(F)cc1)c1ccc(SCC(=O)c2cc(C(=O)O)no2)nc1` [Compound 138], the IC50 at CXCR2 [1] (setting [6]) came to 81 ± 10 nM. The same measure, in the same setting: under `O=C(CSc1ccc(C(=O)Nc2ccc(F)cc2)cn1)c1ccc2c(c1)OCO2` [Compound 139] stands over 5000 nM. Same read-out and setting: under `O=C(CSc1ccc(C(=O)Nc2ccc(F)cc2)cn1)c1ccc2c(c1)OCCO2` [Compound 140] stands 194 ± 52 nM; under `O=C(Nc1ccc(F)cc1)c1ccc(SCC(=O)c2cccc3c2OCCO3)nc1` [Compound 141], over 5000 nM.

In the case of `O=C(CSc1ccc(C(=O)Nc2ccc(F)cc2)cn1)c1ccc2c(c1)OCCCO2` [Compound 142], at CXCR2 [1] (setting [6]), the IC50 was over 5000 nM. For the compound `O=C(Nc1ccc(F)cc1)c1ccc(SCC(=O)c2cccc3c2OCCCO3)nc1` [Compound 143], the IC50 at CXCR2 [1] (setting [6]) is over 10000 nM. Same read-out and setting: under `O=C(Nc1ccc(F)cc1)c1ccc(SCC(=O)c2ccsn2)nc1` [Compound 144] stands 2240 ± 710 nM; under `O=C(Nc1ccc(F)cc1)c1ccc(SCC(=O)c2nc3ccccc3s2)nc1` [Compound 145], over 5000 nM. Still for that read-out and setting: under `Cc1nc(-c2ccccc2)sc1C(=O)CSc1ccc(C(=O)Nc2ccc(F)cc2)cn1` [Compound 146] stands over 10000 nM. On the same count and under the same terms, under `Cc1nc(-c2ccc(Cl)cc2)sc1C(=O)CSc1ccc(C(=O)Nc2ccc(F)cc2)cn1` [Compound 147] stands over 5000 nM. For the compound `Cc1nc(-c2ccc(C(F)(F)F)cc2)sc1C(=O)CSc1ccc(C(=O)Nc2ccc(F)cc2)cn1` [Compound 148], on CXCR2 [1] (setting [6]), the IC50 is over 5000 nM.

For `Cc1nc(-c2cnccn2)sc1C(=O)CSc1ccc(C(=O)Nc2ccc(F)cc2)cn1` [Compound 149], the IC50 on CXCR2 [1] (setting [6]) was over 10000 nM. Same read-out and setting: under `Cc1c(C(=O)CSc2ccc(C(=O)Nc3ccc(F)cc3)cn2)cnn1-c1ccccc1` [Compound 150] stands over 10000 nM. Same read-out and setting: under `Cn1c(C(=O)CSc2ccc(C(=O)Nc3ccc(F)cc3)cn2)nc2ccccc21` [Compound 151] stands 703 ± 291 nM. The same measure, in the same setting: under `O=C(Nc1ccc(F)cc1)c1ccc(SCC(=O)c2cc(Br)cc3c2OCC3)nc1` [Compound 152] stands 529 ± 440 nM.

Regarding `O=C(Nc1ccc(F)cc1)c1ccc(SCC(=O)C(c2ccccc2)c2ccccc2)nc1` [Compound 153], the IC50 at CXCR2 [1] (setting [6]) came out at 1230 nM. On to `CN(C(=O)c1ccc(SCc2ccccc2B(O)O)nc1)c1ccc(F)cc1` [Compound 154], for which the IC50 at CXCR2 [1] (setting [6]) is over 5000 nM.

Consider `O=C(c1ccc(SCc2ccccc2B(O)O)nc1)N(Cc1ccccn1)c1ccc(F)cc1` [Compound 155], for which the IC50 at CXCR2 [1] (setting [6]) turned out to be 78 ± 18 nM. Same read-out and setting: under `O=C(c1ccc(SCc2ccccc2B(O)O)nc1)N(CC1CCCCN1)c1ccc(F)cc1` (centres unmarked) [Compound 156] stands over 5000 nM; under `O=C(c1ccc(SCc2ccccc2B(O)O)nc1)N(Cc1ccncc1)c1ccc(F)cc1` [Compound 157], 890 ± 670 nM; under `O=C(O)CN(C(=O)c1ccc(SCc2ccccc2B(O)O)nc1)c1ccc(F)cc1` [Compound 158], 1990 ± 460 nM. As for `O=C(Nc1ccc(OC(F)(F)F)cc1)c1ccc(SCc2ccccc2B(O)O)nc1` [Compound 159], the IC50 at CXCR2 [1] (setting [6]) is 278 ± 148 nM.

For `O=C(O)c1ccc(NC(=O)c2ccc(SCc3ccccc3B(O)O)nc2)cc1` [Compound 160], the IC50 on CXCR2 [1] (read-out: IC50) is over 10000 nM. For the compound `O=C(Nc1ccc(-c2nn[nH]n2)cc1)c1ccc(SCc2ccccc2B(O)O)nc1` [Compound 161], the IC50 on CXCR2 [1] (setting [6]) was over 10000 nM. Same read-out and setting: under `O=C(Nc1ccncc1)c1ccc(SCc2ccccc2B(O)O)nc1` [Compound 162] stands 520 ± 263 nM. On to `O=C(Nc1ccc(O)cc1)c1ccc(SCc2ccccc2B(O)O)nc1` [Compound 163], for which the IC50 on CXCR2 [1] (setting [6]) is 105 ± 44 nM.

In the case of `O=C(Nc1ccc(F)cn1)c1ccc(SCc2ccccc2B(O)O)nc1` [Compound 164], the IC50 at CXCR2 [1] (setting [6]) was 294 ± 119 nM.

Take `O=C(Nc1ccc(F)cc1O)c1ccc(SCc2ccccc2B(O)O)nc1` [Compound 165]: the IC50 at CXCR2 [1] (setting [6]) turned out to be 37 ± 7 nM. Same read-out and setting: under `O=C(Nc1ccc(F)c(C(=O)O)c1)c1ccc(SCc2ccccc2B(O)O)nc1` [Compound 166] stands over 10000 nM.
